Source: the NIST ThermoML archive (doi:10.1021/je700152c)

Assay: molar heat capacity at saturation pressure; xn = mol fraction of the nth substance listed

CCCCn1cc[n+](C)c1.Cc1ccc(S(=O)(=O)[O-])cc1 [1-butyl-3-methylimidazolium tosylate] + O
Conditions | molar heat capacity [J/K/mol]
272.47 K, Crystal, x1 = 0.83 | 347
272.55 K, Metastable crystal, x1 = 0.83 | 367.59
272.66 K, Crystal, x1 = 0.37 | 265.28
272.99 K, Crystal, x1 = 0.3 | 264.76
273.8 K, Crystal, x1 = 0.37 | 270.96
273.97 K, Crystal, x1 = 0.3 | 269.83
274.39 K, Metastable crystal, x1 = 0.83 | 371.51
274.51 K, Crystal, x1 = 0.83 | 353.78
274.92 K, Crystal, x1 = 0.37 | 276.89
274.93 K, Crystal, x1 = 0.3 | 276.18
275.88 K, Crystal, x1 = 0.3 | 281.68
276.03 K, Crystal, x1 = 0.37 | 283.2
276.22 K, Metastable crystal, x1 = 0.83 | 375.42
276.53 K, Crystal, x1 = 0.83 | 361.08
276.82 K, Crystal, x1 = 0.3 | 288.23
277.13 K, Crystal, x1 = 0.37 | 289.76
277.75 K, Crystal, x1 = 0.3 | 295.53
278.04 K, Metastable crystal, x1 = 0.83 | 379.33
278.22 K, Crystal, x1 = 0.37 | 296.83
278.52 K, Crystal, x1 = 0.83 | 369.42
278.68 K, Crystal, x1 = 0.3 | 301.77
279.29 K, Crystal, x1 = 0.37 | 304.4
279.59 K, Crystal, x1 = 0.3 | 309.59
279.86 K, Metastable crystal, x1 = 0.83 | 383.76
280.35 K, Crystal, x1 = 0.37 | 312.6
280.48 K, Crystal, x1 = 0.3 | 318.37
280.49 K, Crystal, x1 = 0.83 | 379.59
281.36 K, Crystal, x1 = 0.3 | 326.4
281.39 K, Crystal, x1 = 0.37 | 321.44
281.67 K, Metastable crystal, x1 = 0.83 | 388.19
282.23 K, Crystal, x1 = 0.3 | 334.33
282.42 K, Crystal, x1 = 0.37 | 331.41
282.42 K, Crystal, x1 = 0.83 | 391.58
283.09 K, Crystal, x1 = 0.3 | 343.11
283.44 K, Crystal, x1 = 0.37 | 340.37
283.47 K, Metastable crystal, x1 = 0.83 | 393.14
283.93 K, Crystal, x1 = 0.3 | 351.57
284.33 K, Crystal, x1 = 0.83 | 406.44
284.44 K, Crystal, x1 = 0.37 | 351.47
284.76 K, Crystal, x1 = 0.3 | 360.66
285.26 K, Metastable crystal, x1 = 0.83 | 399.66
285.41 K, Crystal, x1 = 0.37 | 362.2
285.58 K, Crystal, x1 = 0.3 | 372.5
286.18 K, Crystal, x1 = 0.83 | 423.91
286.37 K, Crystal, x1 = 0.3 | 390.05
286.38 K, Crystal, x1 = 0.37 | 375.33
287.02 K, Metastable crystal, x1 = 0.83 | 407.22
287.16 K, Crystal, x1 = 0.3 | 386.46
287.33 K, Crystal, x1 = 0.37 | 388.2
287.96 K, Crystal, x1 = 0.3 | 383.82
288 K, Crystal, x1 = 0.83 | 449.2
288.25 K, Crystal, x1 = 0.37 | 402.21
288.77 K, Crystal, x1 = 0.3 | 372.08
288.84 K, Metastable crystal, x1 = 0.83 | 414.26
289.16 K, Crystal, x1 = 0.37 | 417.23
289.6 K, Crystal, x1 = 0.3 | 343.95
289.76 K, Crystal, x1 = 0.83 | 475.27
290.05 K, Crystal, x1 = 0.37 | 434.26
290.49 K, Crystal, x1 = 0.3 | 303.04
290.69 K, Metastable crystal, x1 = 0.83 | 420.52
290.92 K, Crystal, x1 = 0.37 | 452.18
291.45 K, Crystal, x1 = 0.3 | 258.1
291.45 K, Crystal, x1 = 0.83 | 514.89
291.76 K, Crystal, x1 = 0.37 | 471.62
292.49 K, Crystal, x1 = 0.3 | 228.39
292.58 K, Crystal, x1 = 0.37 | 492.69
292.6 K, Metastable crystal, x1 = 0.83 | 426.25
293.09 K, Crystal, x1 = 0.83 | 549.83
293.38 K, Crystal, x1 = 0.37 | 514.4
293.57 K, Crystal, x1 = 0.3 | 214.64
294.16 K, Crystal, x1 = 0.37 | 540.9
294.56 K, Metastable crystal, x1 = 0.83 | 426.77
